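Each compound was tested at five concentrations against cells in 96-well plates for 48 hours. GI50 is the concentration that inhibits growth by half.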 Activity calls are given as the source filed them. Cut-off read from the data, not from the text of the source: active = GI50 up to about 1.1 µM and inactive = higher.
How the values were obtained:
Assay in all cases: growth of human tumour cells (NCI), 48 h
786-0 = system: 786-0
A498 = system: A498
A549 = system: A549
ACHN = system: ACHN
BT-549 = system: BT-549
CAKI-1 = system: CAKI-1
CCRF-CEM = system: CCRF-CEM
COLO 205 = system: COLO 205
DU-145 = system: DU-145
EKVX = system: EKVX
HCC 2998 = system: HCC 2998
HCT-116 = system: HCT-116
HCT-15 = system: HCT-15
HOP-62 = system: HOP-62
HOP-92 = system: HOP-92
HT-29 = system: HT-29
Hs-578T = system: Hs-578T
IGROV-1 = system: IGROV-1
K562 = system: K562
KM12 = system: KM12
M14 = system: M14
MCF7 = system: MCF7
MDA-MB-231 = system: MDA-MB-231
MDA-MB-435 = system: MDA-MB-435
MDA-N = system: MDA-N
MOLT-4 = system: MOLT-4
Malme-3M = system: Malme-3M
NCI-H226 = system: NCI-H226
NCI-H23 = system: NCI-H23
NCI-H460 = system: NCI-H460
NCI-H522 = system: NCI-H522
NCI/ADR-RES = system: NCI/ADR-RES
OVCAR-3 = system: OVCAR-3
OVCAR-4 = system: OVCAR-4
OVCAR-5 = system: OVCAR-5
OVCAR-8 = system: OVCAR-8
PC-3 = system: PC-3
RPMI-8226 = system: RPMI-8226
RXF 393 = system: RXF 393
SF-268 = system: SF-268
SF-295 = system: SF-295
SF-539 = system: SF-539
SK-MEL-28 = system: SK-MEL-28
SK-MEL-2 = system: SK-MEL-2
SK-MEL-5 = system: SK-MEL-5
SK-OV-3 = system: SK-OV-3
SN12C = system: SN12C
SNB-19 = system: SNB-19
SNB-75 = system: SNB-75
SW-620 = system: SW-620
T47D = system: T47D
TK-10 = system: TK-10
U-251 = system: U-251
UACC-257 = system: UACC-257
UO-31 = system: UO-31
HL-60 = system: HL-60
SR = system: SR
UACC-62 = system: UACC-62
LOX IMVI = system: LOX IMVI

Q: What does the source list for `C=CC(CBr)CCC(Br)C(C)(C)Br` (stereo not drawn)?
A: GI50 (786-0): > 10 µM (inactive); GI50 (A498): > 10 µM (inactive); GI50 (A549): > 10 µM (inactive); GI50 (ACHN): > 10 µM (inactive); GI50 (BT-549): > 10 µM (inactive); GI50 (CAKI-1): > 10 µM (inactive); GI50 (CCRF-CEM): > 10 µM (inactive); GI50 (COLO 205): > 10 µM (inactive); GI50 (DU-145): > 10 µM (inactive); GI50 (EKVX): > 10 µM (inactive); GI50 (HCC 2998): > 10 µM (inactive); GI50 (HCT-116): > 10 µM (inactive); GI50 (HCT-15): > 10 µM; GI50 (HOP-62): > 10 µM (inactive); GI50 (HOP-92): > 10 µM (inactive); GI50 (HT-29): > 10 µM (inactive); GI50 (Hs-578T): > 10 µM (inactive); GI50 (IGROV-1): > 10 µM (inactive); GI50 (K562): > 10 µM (inactive); GI50 (KM12): > 10 µM (inactive); GI50 (M14): > 10 µM (inactive); GI50 (MCF7): > 10 µM (inactive); GI50 (MDA-MB-231): > 10 µM (inactive); GI50 (MDA-MB-435): > 10 µM (inactive); GI50 (MDA-N): > 10 µM (inactive); GI50 (MOLT-4): > 10 µM (inactive); GI50 (Malme-3M): > 10 µM (inactive); GI50 (NCI-H226): > 10 µM (inactive); GI50 (NCI-H23): > 10 µM (inactive); GI50 (NCI-H460): > 10 µM (inactive); GI50 (NCI-H522): > 10 µM (inactive); GI50 (NCI/ADR-RES): > 10 µM (inactive); GI50 (OVCAR-3): > 10 µM (inactive); GI50 (OVCAR-4): > 10 µM (inactive); GI50 (OVCAR-5): > 10 µM (inactive); GI50 (OVCAR-8): > 10 µM (inactive); GI50 (PC-3): > 10 µM (inactive); GI50 (RPMI-8226): > 10 µM (inactive); GI50 (RXF 393): > 10 µM (inactive); GI50 (SF-268): > 10 µM (inactive); GI50 (SF-295): > 10 µM (inactive); GI50 (SF-539): > 10 µM (inactive); GI50 (SK-MEL-28): > 10 µM (inactive); GI50 (SK-MEL-2): > 10 µM (inactive); GI50 (SK-MEL-5): > 10 µM (inactive); GI50 (SK-OV-3): > 10 µM (inactive); GI50 (SN12C): > 10 µM (inactive); GI50 (SNB-19): > 10 µM (inactive); GI50 (SNB-75): > 10 µM (inactive); GI50 (SW-620): > 10 µM (inactive); GI50 (T47D): > 10 µM (inactive); GI50 (TK-10): > 10 µM (inactive); GI50 (U-251): > 10 µM (inactive); GI50 (UACC-257): > 10 µM (inactive); GI50 (UO-31): > 10 µM (inactive)

Q: Which results are given for `C/C(N)=N/OCc1nc(C)no1`?
A: GI50 (786-0): > 100 µM (inactive); GI50 (A549): > 100 µM (inactive); GI50 (ACHN): > 100 µM (inactive); GI50 (BT-549): > 100 µM (inactive); GI50 (CAKI-1): > 100 µM (inactive); GI50 (CCRF-CEM): > 100 µM (inactive); GI50 (COLO 205): > 100 µM (inactive); GI50 (DU-145): > 100 µM (inactive); GI50 (EKVX): > 100 µM (inactive); GI50 (HCC 2998): > 100 µM (inactive); GI50 (HCT-116): > 100 µM (inactive); GI50 (HCT-15): > 100 µM; GI50 (HL-60): > 100 µM (inactive); GI50 (HOP-62): > 100 µM (inactive); GI50 (HT-29): > 100 µM (inactive); GI50 (Hs-578T): > 100 µM (inactive); GI50 (K562): > 100 µM (inactive); GI50 (KM12): > 100 µM (inactive); GI50 (M14): > 100 µM (inactive); GI50 (MCF7): > 100 µM (inactive); GI50 (MDA-MB-231): > 100 µM (inactive); GI50 (MDA-MB-435): > 100 µM (inactive); GI50 (MDA-N): > 100 µM (inactive); GI50 (MOLT-4): > 100 µM (inactive); GI50 (NCI-H23): > 100 µM (inactive); GI50 (NCI-H460): > 100 µM (inactive); GI50 (NCI-H522): > 100 µM (inactive); GI50 (NCI/ADR-RES): > 100 µM (inactive); GI50 (OVCAR-3): > 100 µM (inactive); GI50 (OVCAR-4): > 100 µM (inactive); GI50 (OVCAR-8): > 100 µM (inactive); GI50 (PC-3): > 100 µM (inactive); GI50 (RPMI-8226): > 100 µM (inactive); GI50 (RXF 393): > 100 µM (inactive); GI50 (SF-268): > 100 µM (inactive); GI50 (SF-295): > 100 µM (inactive); GI50 (SF-539): > 100 µM (inactive); GI50 (SK-MEL-28): > 100 µM (inactive); GI50 (SK-MEL-5): > 100 µM (inactive); GI50 (SK-OV-3): > 100 µM (inactive); GI50 (SN12C): > 100 µM (inactive); GI50 (SNB-19): > 100 µM (inactive); GI50 (SNB-75): > 100 µM (inactive); GI50 (SR): > 100 µM (inactive); GI50 (SW-620): > 100 µM (inactive); GI50 (T47D): > 100 µM (inactive); GI50 (TK-10): > 100 µM (inactive); GI50 (U-251): > 100 µM (inactive); GI50 (UACC-257): > 100 µM (inactive); GI50 (UACC-62): > 100 µM (inactive); GI50 (UO-31): > 100 µM (inactive)

Q: Which results are given for `Oc1ccccc1-n1nc2ccc3nonc3c2n1`?
A: GI50 (786-0): > 100 µM (inactive); GI50 (A549): > 100 µM (inactive); GI50 (ACHN): > 100 µM (inactive); GI50 (BT-549): > 100 µM (inactive); GI50 (CAKI-1): > 100 µM (inactive); GI50 (CCRF-CEM): > 100 µM (inactive); GI50 (COLO 205): > 100 µM (inactive); GI50 (DU-145): > 100 µM (inactive); GI50 (EKVX): 48.1 µM (inactive); GI50 (HCC 2998): 40.9 µM (inactive); GI50 (HCT-116): > 100 µM (inactive); GI50 (HCT-15): 51.3 µM; GI50 (HL-60): > 100 µM (inactive); GI50 (HOP-62): 90.2 µM (inactive); GI50 (HOP-92): > 100 µM (inactive); GI50 (HT-29): > 100 µM (inactive); GI50 (Hs-578T): > 100 µM (inactive); GI50 (IGROV-1): > 100 µM (inactive); GI50 (K562): > 100 µM (inactive); GI50 (KM12): 30.3 µM (inactive); GI50 (LOX IMVI): > 100 µM (inactive); GI50 (M14): > 100 µM (inactive); GI50 (MCF7): > 100 µM (inactive); GI50 (MDA-MB-231): > 100 µM (inactive); GI50 (MDA-MB-435): > 100 µM (inactive); GI50 (MDA-N): > 100 µM (inactive); GI50 (MOLT-4): > 100 µM (inactive); GI50 (Malme-3M): > 100 µM (inactive); GI50 (NCI-H226): > 100 µM (inactive); GI50 (NCI-H23): > 100 µM (inactive); GI50 (NCI-H460): > 100 µM (inactive); GI50 (NCI-H522): > 100 µM (inactive); GI50 (NCI/ADR-RES): > 100 µM (inactive); GI50 (OVCAR-3): > 100 µM (inactive); GI50 (OVCAR-4): > 100 µM (inactive); GI50 (OVCAR-5): > 100 µM (inactive); GI50 (OVCAR-8): > 100 µM (inactive); GI50 (PC-3): > 100 µM (inactive); GI50 (RPMI-8226): > 100 µM (inactive); GI50 (SF-268): > 100 µM (inactive); GI50 (SF-295): > 100 µM (inactive); GI50 (SF-539): > 100 µM (inactive); GI50 (SK-MEL-28): > 100 µM (inactive); GI50 (SK-MEL-2): > 100 µM (inactive); GI50 (SK-MEL-5): > 100 µM (inactive); GI50 (SK-OV-3): > 100 µM (inactive); GI50 (SN12C): > 100 µM (inactive); GI50 (SNB-19): > 100 µM (inactive); GI50 (SNB-75): > 100 µM (inactive); GI50 (SR): > 100 µM (inactive); GI50 (SW-620): > 100 µM (inactive); GI50 (T47D): > 100 µM (inactive); GI50 (TK-10): > 100 µM (inactive); GI50 (U-251): > 100 µM (inactive); GI50 (UACC-257): > 100 µM (inactive); GI50 (UACC-62): > 100 µM (inactive); GI50 (UO-31): 77.4 µM (inactive)

— ChEMBL document CHEMBL1201862, “PubChem BioAssay data set” (2004)
